Assay results published in US20250387270A1, “DEVICES AND METHODS FOR WOUND TREATMENT” (APPLIED TISSUE TECHNOLOGIES LLC, priority 2016, published 2025).

How the values were obtained:
common bacteria = conditions: typical value for common bacteria; cited from earlier work
[1] = Stability of antibiotic drug activity in 0.5% (agarose) hydrogel over time; format: physicochemical; conditions: antibiotic in 0.5% (agarose) hydrogel, compare with original concentration
Text: According to Table 1, gel-therapeutic agent preparations comprising an antibiotic and a 0.5% (agarose) hydrogel may be stable for up to one week. Drugs dissolve passively into the gel and stay stable over time. In some embodiments, the gel-therapeutic agent preparation may further comprise saline. The gel may be biocompatible, meaning that it is structurally similar to the extracellular matrix in tissues. The gel may be flowable, allowing either for, for example, casting into a mold or injection via needle through a port. The loading of the […] agent preparation in the device may allow consistent and uniform contact with the skin even with patient movement, maintaining continuous delivery of the therapeutic agent to the underlying tissue. The gel-therapeutic agent preparation may prevent loss of the therapeutic agent in the event of a minor leak in the adhesive of the device.

Q: Which MIC (common bacteria) does the source give for `CN[C@H](CC(C)C)C(=O)N[C@H]1C(=O)N[C@@H](CC(N)=O)C(=O)N[C@H]2C(=O)N[C@H]3C(=O)N[C@H](C(=O)N[C@H](C(=O)O)c4cc(O)cc(O)c4-c4cc3ccc4O)[C@H](O)c3ccc(c(Cl)c3)Oc3cc2cc(c3O[C@@H]2O[C@H](CO)[C@@H](O)[C@H](O)[C@H]2O[C@H]2C[C@](C)(N)[C@H](O)[C@H](C)O2)Oc2ccc(cc2Cl)[C@H]1O` [Vancomicin] here?
A: around 2 micrograms per ml

Q: Which MIC (common bacteria) does the source give for Gentamicin here?
A: around 2 micrograms per ml

Q: And the “Drug activity, 3 days” value ([1]; 3 days)?
A: 2.41 µg/mL

Q: And the “Drug activity, 7 days” value ([1]; 7 days)?
A: 2.04 µg/mL
